Reference: patent publication US11065292B2, “Feijoa fruit extract” (CALLAGHAN INNOVATION, priority 2012, dated 2021)

What was measured:
[1] = tested on: collagen-induced arthritis (CIA) mice; assay: Collagen-induced arthritis mice: clinical score, treadmill, histology, radiology; type: in vivo
splenocytes of CIA mice = assay: Cytokine ELISA on splenocytes of CIA mice; type: in vivo; conditions: mean ± SD, 5 mice
Experimental: The production of IL-2, IL-4, IL-6, and IFN-γ from mitogen-stimulated splenocytes was determined as previously described (Chouaib, S.; Welte, K.; Mertelsman, R.; Dupont, B.; J. Immunol., 1985, 135, 1172-1179). Spleens were gently teased with forceps in the culture medium producing a suspension of spleen cells (CM, RPMI 1640 containing 10% fetal bovine serum, 2 mM L-glutamine, 1×10^5 units/L of penicillin and streptomycin). The red blood cells were lysed with 3 mL of lysing buffer (0.16 mol/L ammonia chloride Tris buffer, pH 7.2) at 37° C. for 5 minutes. The cells were then washed with CM twice. The cell concentrations were counted and adjusted to 2×10^6 cells/mL. Splenocytes ([…]) were cultured in triplicate on 96-well flat-bottom culture plates. Splenocytes (0.1 mL/well) were stimulated with ConA (1×10^−2 g/L, 0.1 mL/well) to induce IL-2, IL-4 and IFN-γ production. In other plates, splenocytes were cultured with lipopolysaccharide (1×10^−6 g/L) to induce IL-6 production. These plates were incubated at 37° C., 5% CO2; the culture time for IL-2, IL-4 and IL-6 is 24 hours (or 72 hours for IFN-γ). After incubation, supernatants were collected and stored at −70° C. The cytokines were determined by sandwich ELISA as previously described using a commercial kit.
To establish whether the protective effect of the feijoa fruit extract was related to the anti-inflammatory response observed in the CIA mice, pro-inflammatory cytokines (TNF-α, IL-2 and INF-γ) were investigated using the ELISA assay described in Example 3 (Table 9). It is well known that such cytokines play crucial roles in joint destruction by damaging the synovial cells within the joint. Consequently, a reduction in synovial cells within the joint results in an increase in friction, which in turn, results in inflammation and the potential development of arthritis.

[2] = day 56-79, diet with extract (1.8 mg/day) or 10 mg/kg methotrexate, mean ± SD, 5 mice

## CN(Cc1cnc2nc(N)nc(N)c2n1)c1ccc(C(=O)N[C@@H](CCC(=O)O)C(=O)O)cc1 [Methotrexate, methotrexate]
[1]; day 56-79, diet with extract (1.8 mg/day) or 10 mg/kg methotrexate, 5 mice
  Clinical Score (paw swelling): 10.5 ± 0.7
[1]; [2]
  Foot pressure (treadmill): 141.23 ± 5.28
  Running Speed (treadmill): 121.36 ± 1.69 mm/s
[1]; end of trial, FIGS. 2, 3
  Histological evaluation of joint sections (H&E): relatively normal joint structures with little soft tissue swelling
Splenocytes of CIA mice
  IFN-γ level by splenocytes: 182 ± 21 pg/mL
  IL-2 level by splenocytes: 104 ± 10 pg/mL
  TNF-α level by splenocytes: 255 ± 15 pg/mL
